Article PMC10571957, “αV-Integrin-Dependent Inhibition of Glioblastoma Cell Migration, Invasion and Vasculogenic Mimicry by the uPAcyclin Decapeptide” (Cancers, 2023)

Tested on: C6 cells
Assay: Wound healing assay, C6
Type: cell-based, rat
Description: The wound healing assay or scratch test was performed as previously reported. Briefly, 6 × 10^3 U87-MG cells were seeded in multiwell-12 plates containing culture inserts for live cell analysis (Ibidi, Gmbh, Martinsried, Germany) and grown to confluence in DMEM/10% FBS for 24 h. After removing the inserts, the cells were pre-treated for 40 min at 37 °C with uPAcyclin or diluents at the indicated concentrations, and then incubated in DMEM/3% FBS for 24 h. The images were taken using the Inverted Microscope Leica DMI6000 DFC 402 (Leica Microsystems, Milan, Italy). A total of 10 × 10^4 C6 cells were grown to confluence in 12-well plates, in the presence of DMEM/10% FBS. […] To quantitate cell migration, a rectangle covering the wound edges is drawn on the T0 image and is further applied to the single photograms of each sample. The average margin distance is measured at three points and the results are expressed as percentage wound width of the T0 distance, taken as 100%.
Figure 5 Wound healing assay of U87-MG and C6 cells, in the presence of uPAcyclin. […] (C) For both U87-MG and C6, the wound width at time 0 is taken as 100% and the wound width at T24 or T16 is calculated as relative to that (* p-value < 0.05; ** p-value < 0.005; *** p-value < 0.001).

Q: How did the “wound closure, in words” value (10 pM or 100 nM, C6, 16 h) turn out when “Ac-K^1P[ESPPEELK^10]-NH2 (sidechain bridge or staple) [uPAcyclin]” was run?
A: dose-dependent inhibition of wound closure

Q: And the “reduction of wound healing rate closure” value (C6, abstract)?
A: 50%
